The results in this text go back to paper PMC11613490, “Cyclophostin and Cyclipostins analogues counteract macrolide-induced resistance mediated by erm(41) in Mycobacterium abscessus” (Journal of Biomedical Science, 2024).

Common to all, as to test: microbe, parasite or virus in culture
In assay [1] the test system is M. abscessus S (control, untreated). Details: species or system Mycobacterium abscessus S; broth microdilution / checkerboard MIC in 7H9-S OADC, OD600, more than 90% growth inhibition. The settings on record: Mycobacteroides abscessus, read-out: MIC, single drug.
In assay [2] the test system is M. abscessus S reference strain (Control, untreated). The settings on record: Mycobacteroides abscessus, read-out: MIC (0 µg/mL CyC, alone).
Assay [3] shares this test system. Details: species or system Mycobacterium abscessus; broth microdilution in 7H9-OADC, OD600 growth, MIC defined as 90% growth inhibition. The settings on record: Mycobacteroides abscessus, single drug, read-out: MIC (0 µg/mL CyC, alone).

In brackets after ≈: the same amount, converted by molar mass. Read-outs that look alike come from different tables or passages of the source.

As to `CC[C@H]1OC(=O)[C@H](C)[C@@H](O[C@H]2C[C@@](C)(OC)[C@@H](O)[C@H](C)O2)[C@H](C)[C@@H](O[C@@H]2O[C@H](C)C[C@H](N(C)C)[C@H]2O)[C@](C)(O)C[C@@H](C)CN(C)[C@H](C)[C@@H](O)[C@]1(C)O` [AZM, azithromycin], the MIC in assay [1] was 6 µg/mL.

Regarding `CC[C@H]1OC(=O)[C@H](C)[C@@H](O[C@H]2C[C@@](C)(OC)[C@@H](O)[C@H](C)O2)[C@H](C)[C@@H](O[C@@H]2O[C@H](C)C[C@H](N(C)C)[C@H]2O)[C@](C)(OC)C[C@@H](C)C(=O)[C@H](C)[C@@H](O)[C@]1(C)O` [CLR, clarithromycin], the MIC in assay [1] came to 0.6 µg/mL.

Regarding `CCCCCCCCCCCCCCCCOP1(=O)OCCC(C(=O)OC)=C(C)O1` (stereo not shown) [CyC17], the MIC in assay [2] worked out at 3.2 µg/mL (≈ 7.17 µM).

On to `CCCCCCCCCCCOP1(=O)OCCC(C(=O)OC)=C(C)O1` (stereo not shown) [CyC31], for which the MIC in assay [3] worked out at 20 µg/mL (≈ 53.1 µM).
